ChEMBL document CHEMBL1201862, “PubChem BioAssay data set” (2004)
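A five-concentration, 48-hour dose response in 96-well plates underlies each endpoint, interpolated linearly between surrounding concentrations. GI50: concentration for 50% inhibition of growth.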 Activity calls are given as the source filed them. No stated cut-off is given here; in the data, active = GI50 up to about 1.1 µM and inactive = higher.

Columns and labels:
Test in all cases: NCI anticancer screen, dose series, 48 h
786-0 = test system: 786-0
A498 = test system: A498
A549 = test system: A549
ACHN = test system: ACHN
CAKI-1 = test system: CAKI-1
CCRF-CEM = test system: CCRF-CEM
COLO 205 = test system: COLO 205
DLD-1 = test system: DLD-1
DMS-114 = test system: DMS-114
EKVX = test system: EKVX
HCC 2998 = test system: HCC 2998
HCT-116 = test system: HCT-116
HCT-15 = test system: HCT-15
HL-60 = test system: HL-60
HOP-62 = test system: HOP-62
HT-29 = test system: HT-29
IGROV-1 = test system: IGROV-1
K562 = test system: K562
KM-20L2 = test system: KM-20L2
KM12 = test system: KM12
LOX IMVI = test system: LOX IMVI
LXFL 529 = test system: LXFL 529
M14 = test system: M14
M19-MEL = test system: M19-MEL
MOLT-4 = test system: MOLT-4
Malme-3M = test system: Malme-3M
NCI-H226 = test system: NCI-H226
NCI-H23 = test system: NCI-H23
NCI-H460 = test system: NCI-H460
NCI-H522 = test system: NCI-H522
OVCAR-3 = test system: OVCAR-3
OVCAR-4 = test system: OVCAR-4
OVCAR-5 = test system: OVCAR-5
OVCAR-8 = test system: OVCAR-8
RPMI-8226 = test system: RPMI-8226
SF-268 = test system: SF-268
SF-295 = test system: SF-295
SF-539 = test system: SF-539
SK-MEL-2 = test system: SK-MEL-2
SK-MEL-5 = test system: SK-MEL-5
SK-OV-3 = test system: SK-OV-3
SN12C = test system: SN12C
SNB-19 = test system: SNB-19
SNB-78 = test system: SNB-78
SR = test system: SR
SW-620 = test system: SW-620
TK-10 = test system: TK-10
U-251 = test system: U-251
UACC-257 = test system: UACC-257
UACC-62 = test system: UACC-62
UO-31 = test system: UO-31
XF498 = test system: XF498
DMS-273 = test system: DMS-273
HOP-18 = test system: HOP-18
HOP-92 = test system: HOP-92
RXF 393 = test system: RXF 393
SK-MEL-28 = test system: SK-MEL-28
SNB-75 = test system: SNB-75

CCOC(=O)CC(=O)ON(C)C(C)=O
GI50 (786-0): > 100 µM (inactive) | GI50 (A498): > 100 µM (inactive) | GI50 (A549): > 100 µM (inactive) | GI50 (ACHN): > 100 µM (inactive) | GI50 (CAKI-1): > 100 µM (inactive) | GI50 (CCRF-CEM): > 100 µM (inactive) | GI50 (COLO 205): > 100 µM (inactive) | GI50 (DLD-1): > 100 µM (inactive) | GI50 (DMS-114): > 100 µM (inactive) | GI50 (EKVX): > 100 µM (inactive) | GI50 (HCC 2998): > 100 µM (inactive) | GI50 (HCT-116): > 100 µM (inactive) | GI50 (HCT-15): > 100 µM | GI50 (HL-60): > 100 µM (inactive) | GI50 (HOP-62): > 100 µM (inactive) | GI50 (HT-29): > 100 µM (inactive) | GI50 (IGROV-1): > 100 µM (inactive) | GI50 (K562): > 100 µM (inactive) | GI50 (KM-20L2): > 100 µM (inactive) | GI50 (KM12): > 100 µM (inactive) | GI50 (LOX IMVI): > 100 µM (inactive) | GI50 (LXFL 529): > 100 µM (inactive) | GI50 (M14): > 100 µM (inactive) | GI50 (M19-MEL): > 100 µM (inactive) | GI50 (MOLT-4): > 100 µM (inactive) | GI50 (Malme-3M): > 100 µM (inactive) | GI50 (NCI-H226): > 100 µM (inactive) | GI50 (NCI-H23): > 100 µM (inactive) | GI50 (NCI-H460): > 100 µM (inactive) | GI50 (NCI-H522): > 100 µM (inactive) | GI50 (OVCAR-3): > 100 µM (inactive) | GI50 (OVCAR-4): > 100 µM (inactive) | GI50 (OVCAR-5): > 100 µM (inactive) | GI50 (OVCAR-8): > 100 µM (inactive) | GI50 (RPMI-8226): > 100 µM (inactive) | GI50 (SF-268): > 100 µM (inactive) | GI50 (SF-295): > 100 µM (inactive) | GI50 (SF-539): > 100 µM (inactive) | GI50 (SK-MEL-2): > 100 µM (inactive) | GI50 (SK-MEL-5): > 100 µM (inactive) | GI50 (SK-OV-3): > 100 µM (inactive) | GI50 (SN12C): > 100 µM (inactive) | GI50 (SNB-19): > 100 µM (inactive) | GI50 (SNB-78): > 100 µM (inactive) | GI50 (SR): > 100 µM (inactive) | GI50 (SW-620): > 100 µM (inactive) | GI50 (TK-10): > 100 µM (inactive) | GI50 (U-251): > 100 µM (inactive) | GI50 (UACC-257): > 100 µM (inactive) | GI50 (UACC-62): > 100 µM (inactive) | GI50 (UO-31): > 100 µM (inactive) | GI50 (XF498): > 100 µM (inactive)

CCOC(=O)C1=C(C)C2C3C(=O)NC(=O)C3C1(C)C1C(=O)NC(=O)C21 (stereo not given)
GI50 (786-0): > 100 µM (inactive) | GI50 (A498): > 100 µM (inactive) | GI50 (A549): > 100 µM (inactive) | GI50 (ACHN): > 100 µM (inactive) | GI50 (CCRF-CEM): > 100 µM (inactive) | GI50 (COLO 205): > 100 µM (inactive) | GI50 (DLD-1): > 100 µM (inactive) | GI50 (DMS-114): > 100 µM (inactive) | GI50 (DMS-273): > 100 µM (inactive) | GI50 (EKVX): > 100 µM (inactive) | GI50 (HCC 2998): > 100 µM (inactive) | GI50 (HCT-116): > 100 µM (inactive) | GI50 (HCT-15): > 100 µM | GI50 (HL-60): > 100 µM (inactive) | GI50 (HOP-18): 3.49 µM (inactive) | GI50 (HOP-62): > 100 µM (inactive) | GI50 (HOP-92): > 100 µM (inactive) | GI50 (HT-29): > 100 µM (inactive) | GI50 (IGROV-1): > 100 µM (inactive) | GI50 (K562): > 100 µM (inactive) | GI50 (KM-20L2): > 100 µM (inactive) | GI50 (KM12): > 100 µM (inactive) | GI50 (LOX IMVI): > 100 µM (inactive) | GI50 (LXFL 529): > 100 µM (inactive) | GI50 (M14): > 100 µM (inactive) | GI50 (M19-MEL): > 100 µM (inactive) | GI50 (MOLT-4): > 100 µM (inactive) | GI50 (Malme-3M): > 100 µM (inactive) | GI50 (NCI-H226): < 0.01 µM (active) | GI50 (NCI-H23): > 100 µM (inactive) | GI50 (NCI-H460): > 100 µM (inactive) | GI50 (OVCAR-3): 59.7 µM (inactive) | GI50 (OVCAR-4): > 100 µM (inactive) | GI50 (OVCAR-8): > 100 µM (inactive) | GI50 (RPMI-8226): > 100 µM (inactive) | GI50 (RXF 393): > 100 µM (inactive) | GI50 (SF-268): > 100 µM (inactive) | GI50 (SF-295): > 100 µM (inactive) | GI50 (SF-539): > 100 µM (inactive) | GI50 (SK-MEL-28): > 100 µM (inactive) | GI50 (SK-MEL-2): > 100 µM (inactive) | GI50 (SK-MEL-5): > 100 µM (inactive) | GI50 (SK-OV-3): > 100 µM (inactive) | GI50 (SN12C): > 100 µM (inactive) | GI50 (SNB-19): > 100 µM (inactive) | GI50 (SNB-75): > 100 µM (inactive) | GI50 (SNB-78): > 100 µM (inactive) | GI50 (SW-620): > 100 µM (inactive) | GI50 (TK-10): > 100 µM (inactive) | GI50 (U-251): > 100 µM (inactive) | GI50 (UACC-257): > 100 µM (inactive) | GI50 (UACC-62): > 100 µM (inactive) | GI50 (UO-31): > 100 µM (inactive)
